The values that follow are results of earlier work, collected in article PMC9737391, “Trifluoromethylcinnamanilide Michael Acceptors for Treatment of Resistant Bacterial Infections” (International Journal of Molecular Sciences, 2022).

The subject of one data set is S. aureus/MRSA. Set-up: method as in ref 26, 51 = [26]; PMID 30087309; doi:10.3390/ijms19082318; 26. Pospisilova S. Kos J. Michnova H. Kapustikova I. Strharsky T. Oravec M. Moricz A.M. Bakonyi J. Kauerova T. Kollar P. Synthesis and spectrum of biological activities of novel N -arylcinnamamides In || [51]; 51. Pospisilova S. Kos J. Michnova H. Strharsky T. Cizek A. Jampilek J. N -Arylcinnamamides as antistaphylococcal agents Proceedings of the 4th International Electronic Conference on Medicinal Chemist. Conditions: cited from earlier work.

Another data set deals with staphylococcal biofilm. Set-up: method as in ref 26, 51 = [26]; PMID 30087309; doi:10.3390/ijms19082318; 26. Pospisilova S. Kos J. Michnova H. Kapustikova I. Strharsky T. Oravec M. Moricz A.M. Bakonyi J. Kauerova T. Kollar P. Synthesis and spectrum of biological activities of novel N -arylcinnamamides In || [51]; 51. Pospisilova S. Kos J. Michnova H. Strharsky T. Cizek A. Jampilek J. N -Arylcinnamamides as antistaphylococcal agents Proceedings of the 4th International Electronic Conference on Medicinal Chemist. As to conditions: cited from earlier work.

Another data set deals with M. tuberculosis H37Ra. More on the design: method as in ref 26 = [26]; PMID 30087309; doi:10.3390/ijms19082318; 26. Pospisilova S. Kos J. Michnova H. Kapustikova I. Strharsky T. Oravec M. Moricz A.M. Bakonyi J. Kauerova T. Kollar P. Synthesis and spectrum of biological activities of novel N -arylcinnamamides In. Conditions: average over the named compounds; cited from earlier work.

A further data set concerns M. tuberculosis. More on the design: method as in ref 26 = [26]; PMID 30087309; doi:10.3390/ijms19082318; 26. Pospisilova S. Kos J. Michnova H. Kapustikova I. Strharsky T. Oravec M. Moricz A.M. Bakonyi J. Kauerova T. Kollar P. Synthesis and spectrum of biological activities of novel N -arylcinnamamides In. As to conditions: MTT, at MIC values; cited from earlier work.
The subject of another data set is MRSA. Set-up: method as in ref 26, 51 = [26]; PMID 30087309; doi:10.3390/ijms19082318; 26. Pospisilova S. Kos J. Michnova H. Kapustikova I. Strharsky T. Oravec M. Moricz A.M. Bakonyi J. Kauerova T. Kollar P. Synthesis and spectrum of biological activities of novel N -arylcinnamamides In || [51]; 51. Pospisilova S. Kos J. Michnova H. Strharsky T. Cizek A. Jampilek J. N -Arylcinnamamides as antistaphylococcal agents Proceedings of the 4th International Electronic Conference on Medicinal Chemist. Conditions: against MRSA; cited from earlier work.

The subject of data set [1] is Plasmodium falciparum 3D7. More on the design: method as in PMID 36431900. Conditions: read-out: IC50 against Plasmodium falciparum 3D7; cited from earlier work.
For the next data set, the system named is NF-κB. More on the design: method as in PMID 31835703. Conditions: compared with prednisone; cited from earlier work.
The subject of the next data set is S. aureus ATCC 29213. Conditions: MTT, at 0.25× MIC; cited from earlier work.

Consider `O=C(/C=C/c1ccccc1)Nc1cccc(C(F)(F)F)c1` [3a], for which the bactericidal effect result in the data set on S. aureus/MRSA was “bactericidal effect in concentrations close to MICs”. Further, in the data set with staphylococcal biofilm, the “effect on staphylococcal biofilm” value is “ability to inhibit the growth of staphylococcal biofilm and disrupted mature biofilm in concentrations close to MICs”. Moreover, in the data set with M. tuberculosis H37Ra, the “average MIC against M. tuberculosis H37Ra” value (shortened to “average MIC”) is on record as ~ 24 µM.
On to `O=C(/C=C/c1ccccc1)Nc1cc(C(F)(F)F)cc(C(F)(F)F)c1` [3b], for which the bactericidal effect entry in the data set with S. aureus/MRSA is on record as “bactericidal effect in concentrations close to MICs”. Moreover, the “effect on staphylococcal biofilm” value in the data set with staphylococcal biofilm is “ability to inhibit the growth of staphylococcal biofilm and disrupted mature biofilm in concentrations close to MICs”. In addition, the “inhibition of M. tuberculosis respiration” value in the data set on M. tuberculosis was 77%. Also, the “average MIC” value in the data set with M. tuberculosis H37Ra is reported as ~ 24 µM. In addition, in the data set with MRSA, the “effect in combination with ciprofloxacin” value is reported as “synergistic effect”, the “effect in combination with tetracycline” value is given as “synergistic effect” and the “effect in combination with vancomycin” value was “additivity”.
As for `O=C(/C=C/c1ccccc1)Nc1cc(Cl)cc(Cl)c1` [3d], the “inhibition of M. tuberculosis respiration” value in the data set on M. tuberculosis was 77%. Also, the “average MIC” value with M. tuberculosis H37Ra is ~ 24 µM.
Regarding `O=C(/C=C/c1ccccc1)Nc1ccc(Br)cc1Cl` [3f], the IC50 in data set [1] is 0.58 µM.
On to `O=C(/C=C/c1ccccc1)Nc1cc(C(F)(F)F)ccc1Cl` [3g], for which, in the data set on NF-κB, the “anti-inflammatory potential (NF-κB inhibition)” value was “comparable to that prednisone”.
Regarding `O=C(/C=C/c1ccc(Cl)c(Cl)c1)Nc1cc(C(F)(F)F)cc(C(F)(F)F)c1` [4f], in the data set on S. aureus ATCC 29213, the “inhibition of S. aureus respiration” value was 96%.
